In patent publication US7232570B2, “ERAAP modulators regulate immune responses” (Regents of the University of California, priority 2002, dated 2007):

Test system: Sprague-Dawley rats
Assay: Phenotypic and functional indicia of immunosuppression in treated rats
Type: in vivo
Settings: e.g. influenza and lymphocytic coriomeningitis virus

CC(C)C[C@H](N)CS [leucinethiol]
resistance to viral challenge: reduced
